Laboratory results from patent US20050272700A1, “Topical treatment and prevention of human papilloma virus (HPV) infection” (priority 2004, published 2005).

Columns and labels:
[1] = Stability testing of I3C solutions and formulations by HPLC; assay type: physicochemical; conditions: for amount of the active remaining: aqueous medium, 5° C.; for loss of potency: 2 weeks
Description: Stability testing of the formulations was performed by HPLC analysis. The area of the peak representing I3C or a derivative thereof was monitored.

[2] = test system: DMBA-induced mammary tumors; conditions: Wattenberg and Loub 1978; cited from earlier work

| SMILES | amount of the active remaining ([1]; pH 6.0, 2 weeks) | amount of the active remaining ([1]; pH 8.0, 2 weeks) | loss of potency ([1]; same aqueous composition at pH 7.4 without hydroxypropyl-β-cyclodextrin) [%] | loss of potency ([1]; solution at pH 7.4 with added hydroxypropyl-β-cyclodextrin) [%] | reduction of DMBA-induced mammary tumors [2] |
| --- | --- | --- | --- | --- | --- |
| OCc1c[nH]c2ccccc12 [Composition I3C, indole-3-carbinol] | completely decomposed | about 93% | 16 | 1.3 | – |
| c1ccc2c(Cc3c[nH]c4ccccc34)c[nH]c2c1 [DIM, 3,3′-diindoylmethane] | – | – | – | – | somewhat effective |
